Results taken from patent publication US20170298360A1, “LATS AND BREAST CANCER” (FRIEDRICH MIESCHER INSTITUTE FOR BIOMEDICAL RESEARCH, priority 2014, published 2017).
Peptide text beside a SMILES is read from it. * marks the point of attachment. Cbz = O=C(OCc1ccccc1)*

What was measured:
SUM159 and MDA 436 = assay: Colony formation of triple-negative breast cancer lines with or without LATS; assay type: cell-based, human; settings: SUM159 and MDA 436 in M5 medium
From the text: (§1) Lentiviral vectors, lentivirus production and infection For LATS knockdown, the following TRC pLKO clones (Sigma) were used: LATS_1=NM_004690.x-2666s1c1, LATS_2=NM_004690.x-3614s1c1, LATS_3=NM_014572.x-2894s1c1 and the MISSION® Non-Target shRNA Control Vector SHC002. For the competition experiment, GFP and ERα expressing lentiviral vectors were cloned as described in (Duss, BCR, 2007). Lentiviruses were produced by PEI transfection of 293 T cells as described (Britschgi et al., 2012; Duss et al., 2014). The titer of each lentiviral batch was determined on PHBECs or MCF10A cells. Cell lines were infected o/n in the presence of hexamethrine bromide (8 μg/mL). Infections were performed at a multiplicity of infection of 5-20 viral particles per cell. Selection with 1.25-1.5 μg/ml puromycin was applied 48 h after infection.
(§2) Cell lines and in vitro experiments SUM159PT human breast cancer cells were from Asterand and propagated as recommended. All the other cell lines were from, and were cultured according to the protocol of ATCC. MCF10A cells were maintained as previously described (Bentires-Alj et al., 2006). […] Cell viability was measured using the Cell Proliferation Reagent WST-1 (Roche). […] Colony area was quantified using the Odyssey scanner and software (LICOR) or Image-J (Fiji 64 bit). […]

SUM159 shLATS xenografts = assay: Orthotopic SUM159 shNT / shLATS xenograft tumor growth; assay type: in vivo, mouse; settings: tumor-bearing mice, tamoxifen citrate 3 mg/kg, intraperitoneal, n=5, **P<0.01 vs shNT
Method: Animal experiments SCID/beige and SCID/NOD (Jackson Labs) were used in compliance with the Swiss laws for animal welfare and animal protocols were approved by the Swiss Cantonal Veterinary Office of Basel. For orthotopic engraftment of breast cancer cell lines, 2×10^6 T47D or 1×10^6 SUM159 cells were suspended in a 100 μl mixture of Basement Membrane Matrix Phenol Red-free (BD Biosciences) and PBS 1:1 and injected into the mouse mammary gland 4. […] Tumor-bearing mice were randomized based on tumor volume prior to the initiation of treatment, which started when average tumor volume was at least 100 mm^3. Fulvestrant and Tamoxifen hydrate dissolved in sunflower seed oil (all from Sigma) were injected intraperitoneally as indicated. Tumors were measured every 3 to 4 days with vernier calipers, and tumor volumes were calculated by the formula 0.5×(larger diameter)×(smaller diameter)^2.
For in vivo studies, fulvestrant and tamoxifen were dissolved in sunflower seed oil (Sigma) and injected intraperitoneal as indicated.

T47D and MCF7 cells = assay: Cell viability (WST-1) of ER-positive breast cancer cells after downregulation of LATS; assay type: cell-based, human; settings: LATS downregulated vs control
From the text: as §1, §2

ERα [1] = assay: LATS1-induced ERα degradation in LATS1 overexpressing cells (immunoblot); assay type: cell-based, human
Method: Cell lines and in vitro experiments SUM159PT human breast cancer cells were from Asterand and propagated as recommended. All the other cell lines were from, and were cultured according to the protocol of ATCC. MCF10A cells were maintained as previously described (Bentires-Alj et al., 2006). For most experiments, MCF10A, SUM159 and MDA 436 cells were cultured in M5 medium and the medium was refreshed or replaced every 3 days. Antibody blocking experiments were performed by adding anti-AREG (R&D, MAB262, 0.5-10 μg/ml) or a mouse IgG antibody (R&D, 10 or 2.5 μg/ml) to the medium prior to seeding of the cells or transferring the conditioned medium. Cell viability was measured using the Cell Proliferation Reagent WST-1 (Roche). Colony formation assays were performed by seeding 500-1000 cells/well in 6-well plates. Cells were allowed to adhere overnight before treatment with inhibitors or solvent as indicated. Colonies were stained after 6-10 days with 0.2% crystal violet in PBS/4% formalin. Colony area was quantified using the Odyssey scanner and software (LICOR) or Image-J (Fiji 64 bit). For sphere formation assays, 4000 (passage 1) or 1000 (subsequent passages) MCF10A cells/ml were grown in ultra-low attachment (ULA) dishes (Corning) for 5-7 days. […]

ERα [2] = target: T1, ERα (Homo sapiens, UniProt P03372); assay: ERα degradation in luminal breast cancer cells lacking LATS; assay type: cell-based; settings: cancer cells lacking LATS grown as xenograft
T1 sequence (P03372 1-595): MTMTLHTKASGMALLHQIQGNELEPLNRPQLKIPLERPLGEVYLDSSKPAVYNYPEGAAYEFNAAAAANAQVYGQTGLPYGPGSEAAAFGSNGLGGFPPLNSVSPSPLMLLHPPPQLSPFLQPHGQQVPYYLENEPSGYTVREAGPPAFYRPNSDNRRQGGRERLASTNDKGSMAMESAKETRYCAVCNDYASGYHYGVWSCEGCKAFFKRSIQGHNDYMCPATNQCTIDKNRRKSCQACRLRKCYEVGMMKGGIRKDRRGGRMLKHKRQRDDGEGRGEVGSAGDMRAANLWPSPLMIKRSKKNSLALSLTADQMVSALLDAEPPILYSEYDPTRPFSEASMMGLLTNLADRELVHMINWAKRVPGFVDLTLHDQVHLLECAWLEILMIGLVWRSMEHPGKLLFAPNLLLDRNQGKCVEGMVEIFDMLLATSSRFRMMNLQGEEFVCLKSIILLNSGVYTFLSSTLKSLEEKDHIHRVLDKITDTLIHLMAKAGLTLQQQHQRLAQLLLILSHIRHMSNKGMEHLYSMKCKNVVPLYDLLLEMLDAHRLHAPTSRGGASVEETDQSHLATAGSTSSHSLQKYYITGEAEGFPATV
Method: Immunoblotting and immunoprecipitation Cells for immunoblotting and ELISA were lysed with RIPA buffer (50 mM Tris-HCl pH 8, 150 mM NACl, 1% NP-40, 0.5% sodium deoxycholate, 0.1% SDS), supplemented with 1× protease inhibitor cocktail (Complete Mini, Roche), 0.2 mMol/L sodium orthovanadate, 20 mM sodium fluoride and 1 mM phenylmethylsulfonyl fluoride. […]

T47D = assay: Orthotopic xenograft tumor growth of ER-positive breast cancer cells lacking LATS; assay type: in vivo, mouse; settings: cancer cells lacking LATS grown as xenograft, intraperitoneal
Method: Animal experiments SCID/beige and SCID/NOD (Jackson Labs) were used in compliance with the Swiss laws for animal welfare and animal protocols were approved by the Swiss Cantonal Veterinary Office of Basel. For orthotopic engraftment of breast cancer cell lines, 2×10^6 T47D or 1×10^6 SUM159 cells were suspended in a 100 μl mixture of Basement Membrane Matrix Phenol Red-free (BD Biosciences) and PBS 1:1 and injected into the mouse mammary gland 4. For the estrogen-dependent T47D cell line, mice received estrogen-containing drinking water 2 days prior to injection. Tumor-bearing mice were randomized based on tumor volume prior to the initiation of treatment, which started when average tumor volume was at least 100 mm^3. Fulvestrant and Tamoxifen hydrate dissolved in sunflower seed oil (all from Sigma) were injected intraperitoneally as indicated. Tumors were measured every 3 to 4 days with vernier calipers, and tumor volumes were calculated by the formula 0.5×(larger diameter)×(smaller diameter)^2.
Compounds and formulations Fulvestrant, 4-Hydroxytamoxifen (4-OHT), Tamoxifen (OHT), Cycloheximide and MG132 were from Sigma. Fulvestrant and MG-132 were prepared as 10 mMol/L stock solution in DMSO, 4-OHT and Cycloheximide as 10 mMol/L in ethanol and all stock solutions were stored at −20° C. […]

Row | SMILES | colony formation in cells lacking LATS compared to controls (SUM159 and MDA 436) | tumor growth of SUM159 shLATS xenografts (SUM159 shLATS xenografts) | tumor growth of SUM159 shLATS xenografts (SUM159 shLATS xenografts; listed as tamoxifen citrate) | effect of LATS downregulation on sensitivity / viability of treated cells (T47D and MCF7 cells) | LATS1-induced degradation of ERα (ERα [1]) | degradation of ERα (ERα [2]) | reduction of tumor growth (T47D)
1 | CC/C(=C(\c1ccccc1)c1ccc(OCCN(C)C)cc1)c1ccccc1 [tamoxifen, Tamoxifen] | reduced colony formation | stopped growing | susceptible | no effect | – | – | –
2 | CC(C)C[C@@H](C=O)NC(=O)[C@H](CC(C)C)NC(=O)[C@H](CC(C)C)NC(=O)OCc1ccccc1 [MG132] (Cbz-Leu-Leu-Leu-aldehyde) | – | – | – | – | prevented | – | –
3 | C[C@]12CC[C@@H]3c4ccc(O)cc4C[C@@H](CCCCCCCCC[S+]([O-])CCCC(F)(F)C(F)(F)F)[C@H]3[C@@H]1CC[C@@H]2O (stereo partly drawn) [fulvestrant, Fulvestrant] | no effect | – | – | reduced sensitivity | – | failed to degrade ERα | failed
